Measured values reported in ChEMBL document CHEMBL2046416, “An amino-indazole scaffold with spectrum selective kinase inhibition of FLT3, PDGFRα and kit” (Bioorg Med Chem Lett, 2012).

Legend:
BaF3 [1] = assay: Antiproliferative activity against mouse BAF3 cells expressing PDGFRalpha T674M mutant gene; assay type: functional, cell-based
BaF3 [2] = assay: Antiproliferative activity against mouse BAF3 cells expressing Kit […] mutant gene; assay type: functional, cell-based
BaF3 [3] = assay: Antiproliferative activity against wild type mouse BAF3 cells; assay type: cell-based
MOLT-3 = assay: Antiproliferative activity against human MOLT3 cells expressing FLT3 gene; assay type: functional, cell-based

Measured: EC50

O=C(NCCN1CCOCC1)c1cccc(-c2ccc3c(NC(=O)C4CC4)n[nH]c3c2)c1
> 10 µM: BaF3 [1] | BaF3 [2] | BaF3 [3] | MOLT-3
